Reference: patent US5665745A, “Heterocyclic compounds and their preparation and use” (Eli Lilly and Company, priority 1995, dated 1997)
Read-outs that look alike come from different tables or passages of the source.

Key:
[1] = target: muscarinic acetylcholine receptors; experiment: inhibition of specific binding of ^3 H-Oxotremorine-M (^3 H-Oxo); design: species or system rat (male Wistar; conditions: ^3 H-Oxotremorine 1.0 nM, rat cortex, 30 min. at 25° C.
Outline: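 Rat cortex membranes (male Wistar) in 20 mM Hepes pH 7.4 incubated with 1.0 nM ^3H-Oxotremorine-M (final) and test compound for 30 min at 25 °C; arecoline defines non-specific binding. Bound radioactivity by filtration and scintillation counting; IC50 (nM) from a single concentration via Co/Cx mass-action formula, reflecting high- and medium-affinity sites.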

[2] = target: T1, muscarinic receptors (M1 -site, pirenzepine sensitive site) (Rattus norvegicus, UniProt P08482); experiment: inhibition of ^3 HPRZ (pirenzepine, [N-methyl-^3 H]) binding to rat cerebral cortex membranes; design: species or system rat (male Wistar
T1 construct: from tissue; host or cells: cerebral cortex membranes of male Wistar rats
T1 sequence (P08482 1-460): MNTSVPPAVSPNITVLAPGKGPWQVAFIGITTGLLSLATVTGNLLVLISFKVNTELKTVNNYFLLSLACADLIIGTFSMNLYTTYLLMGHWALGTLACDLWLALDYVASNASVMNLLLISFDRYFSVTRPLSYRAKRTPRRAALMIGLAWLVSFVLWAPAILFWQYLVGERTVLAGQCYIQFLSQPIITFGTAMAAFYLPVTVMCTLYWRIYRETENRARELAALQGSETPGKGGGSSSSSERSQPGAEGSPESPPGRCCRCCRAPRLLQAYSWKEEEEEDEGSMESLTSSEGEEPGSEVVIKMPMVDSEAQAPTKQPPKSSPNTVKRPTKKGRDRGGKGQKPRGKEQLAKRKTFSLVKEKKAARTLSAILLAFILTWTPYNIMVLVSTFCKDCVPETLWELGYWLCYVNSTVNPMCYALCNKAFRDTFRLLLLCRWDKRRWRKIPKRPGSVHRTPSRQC
Outline: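 Male Wistar rat cortex membranes in 20 mM Hepes pH 7.4 were incubated with 1.0 nM (final) [3H]pirenzepine for 60 min at 20° C; nonspecific binding was defined with 1 μg/mL atropine. Filtration and scintillation counting were used, and IC50 was calculated from a single concentration assuming mass-action kinetics.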

[3] = ^3 HPRZ 1.0 nM, rat cortex, 60 min. at 20° C., read-out: ^3 HPRZ IC50 (head from b208 on: Pir IC-50)

IC50 [1] [nM]	IC50 [2, 3] [nM]	Compound	IC50 [2] [nM]
4.7	11	CC(C)=CCCOc1nsnc1O[C@@H]1CN2CCC[C@H]1C2 (relative stereo) [Compound 180, (±)-endo-3-(4-Methyl-3-pentenyloxy)-4-(1-azabicyclo[3.2.1]octyl-6-oxy)-1,2,5-thiadiazole]	–
1.1	2.2	C/C=C\COc1nsnc1O[C@@H]1CN2CCC[C@H]1C2 (relative stereo) [Compound 181, (±)-endo-3-(cis-2-Butenyloxy)-4-(1-azabicyclo[3.2.1]octyl-6-oxy)-1,2,5-thiadiazole]	–
0.6	3.5	C1C[C@H]2CN(C1)C[C@H]2Oc1nsnc1OCC1CC1 (relative stereo) [Compound 182, (±)-endo-3-(cyclopropylmethoxy)-4-(1-azabicyclo[3.2.1]octyl-6-oxy)-1,2,5-thiadiazole]	–
2.6	9.9	COCCOc1nsnc1O[C@@H]1CN2CCC[C@H]1C2 (relative stereo) [Compound 183, (±)-endo-3-(2-Methoxyethoxy)-4-(1-azabicyclo[3.2.1]octyl-6-oxy)-1,2,5-thiadiazole]	–
1.2	2.2	C=CCCOc1nsnc1O[C@@H]1CN2CCC[C@H]1C2 (relative stereo) [Compound 184, (±)-endo-3-(3-Butenyloxy)-4-(1-azabicyclo[3.2.1]octyl-6-oxy)-1,2,5-thiadiazole]	–
0.76	2	C1C[C@H]2CN(C1)C[C@H]2Oc1nsnc1OCCC1CC1 (relative stereo) [Compound 185]	–
0.59	2.8	C#CCCOc1nsnc1O[C@@H]1CN2CCC[C@H]1C2 (relative stereo) [Compound 186, (±)-endo-3-(3-Butynyloxy)-4-(1-azabicyclo[3.2.1]octyl-6-oxy)-1,2,5-thiadiazole]	–
12	43	FC(F)(F)c1cccc(CCOc2nsnc2O[C@@H]2CN3CCC[C@H]2C3)c1 (relative stereo) [Compound 188, (±)-endo-3-[2-(3-Trifluoromethylphenyl)ethoxy]-4-(1-azabicyclo[3.2.1]octyl-6-oxy)-1,2,5-thiadiazole]	–
1.7	3.8	c1csc(CCOc2nsnc2O[C@@H]2CN3CCC[C@H]2C3)c1 (relative stereo) [Compound 189, (±)-endo-3-[2-(2-Thienyl)ethoxy]-4-(1-azabicyclo[3.2.1]octyl-6-oxy)-1,2,5-thiadiozole]	–
3.9	2.5	FC(F)(F)C(F)(F)COc1nsnc1O[C@@H]1CN2CCC[C@H]1C2 (relative stereo) [Compound 190, (±)-endo-3-(3,3,3,2,2,Pentafluoropropoxy)-4-(1-azabicyclo[3.2.1]octyl-6-oxy)-1,2,5-thiadiazole]	–
1.4	9.5	c1ccc(OCCOc2nsnc2O[C@@H]2CN3CCC[C@H]2C3)cc1 (relative stereo) [Compound 191, (±)-endo-3-(2-Phenoxyethoxy)-4-(1-azabicyclo[3.2.1]octyl-6-oxy)-1,2,5-thiadiazole]	–
13	21	CCCCc1ccc(COc2nsnc2O[C@@H]2CN3CCC[C@H]2C3)cc1 (relative stereo) [Compound 192, (±)-endo-3-(4-n-Butylbenzyloxy)-4-(1-azabicyclo[3.2.1]octyl-6-oxy)-1,2,5-thiadiazole]	–
3.7	10	COc1ccc(CCCOc2nsnc2O[C@@H]2CN3CCC[C@H]2C3)cc1 (relative stereo) [Compound 193, (±)-endo-3-[3-(4-Methoxyphenyl)propoxy]-4-(1-azabicyclo[3.2.1]octyl-6-oxy)-1,2,5-thiadiazole]	–
2.1	4	Fc1ccc(COc2nsnc2O[C@@H]2CN3CCC[C@H]2C3)cc1 (relative stereo) [Compound 194, (±)-endo-3-(4-Fluorobenzyloxy)-4-(1-azabicyclo[3.2.1]octyl-6-oxy)-1,2,5-thiadiazole]	–
4.9	7.5	Fc1ccc(COc2nsnc2O[C@@H]2CN3CCC[C@H]2C3)c(F)c1 (relative stereo) [Compound 195, (±)-endo-3-(2,4-Difluorobenzyloxy)-4-(1-azabicyclo[3.2.1]octyl-6-oxy)-1,2,5-thiadiazole]	–
5.2	8.8	FC(F)(F)Oc1ccc(COc2nsnc2O[C@@H]2CN3CCC[C@H]2C3)cc1 (relative stereo) [Compound 196, (±)-endo-3-[4-(Trifluoromethoxy)benzyloxy]-4-(1-azabicyclo[3.2.1]octyl-6-oxy)-1,2,5-thiadiazole]	–
31	120	CC(C)(C)c1ccc(COc2nsnc2O[C@@H]2CN3CCC[C@H]2C3)cc1 (relative stereo) [Compound 198, (±)-endo-3-(4-tert-Butylbenzyloxy)-4-(1-azabicyclo[3.2.1]octyl-6-oxy)-1,2,5-thiadiazole]	–
16	12	C1CCC(CCOc2nsnc2O[C@@H]2CN3CCC[C@H]2C3)CC1 (relative stereo) [Compound 200, (±)-endo-3-(2-Cyclohexylethoxy)-4-(1-azabicyclo[3.2.1]octyl-6-oxy)-1,2,5-thiadiazole]	–
3.7	3.1	CC(C)=CCOc1nsnc1O[C@@H]1CN2CCC[C@H]1C2 (relative stereo) [Compound 201, (±)-endo-3-(3-Methyl-2-butenyloxy)-4-(1-azabicyclo[3.2.1]octyl-6-oxy)-1,2,5-thiadiazole]	–
2.5	3	FCCCOc1nsnc1O[C@@H]1CN2CCC[C@H]1C2 (relative stereo) [Compound 205, (±)-endo-3-(3-Fluoropropoxy)-4-(1-azabicyclo[3.2.1]octyl-6-oxy)-1,2,5-thiadiazole]	–
6.1	5	c1csc(CCCOc2nsnc2O[C@@H]2CN3CCC[C@H]2C3)c1 (relative stereo) [Compound 206, (±)-endo-3-[3-(2-Thienyl)propoxy]-4-(1-azabicyclo[3.2.1]octyl-6-oxy)-1,2,5-thiadiazole]	–

Compound	IC50 [1] [nM]	IC50 [2, 3] [nM]	IC50 [2] [nM]
FC(F)(F)C(F)(F)C(F)(F)COc1nsnc1O[C@@H]1CN2CCC[C@H]1C2 (relative stereo) [Compound 187, (±)-endo-3-(4,4,4,3,3,2,2-Heptafluorobutoxy)-4-(1-azabicyclo[3.2.1]octyl-6-oxy)-1,2,5-thiadiazole]	2.8	–	1.6
FCCCCOc1nsnc1O[C@@H]1CN2CCC[C@H]1C2 (relative stereo) [Compound 197, (±)-endo-3-(4-Fluorobutoxy)-4-(1-azabicyclo[3.2.1]octyl-6-oxy)-1,2,5-thiadiazole]	2.3	6.9	–
C1CCC(CCCCOc2nsnc2O[C@@H]2CN3CCC[C@H]2C3)CC1 (relative stereo) [Compound 202, (±)-endo-3-(4-Cyclohexylbutoxy)-4-(1-azabicyclo[3.2.1]octyl-6-oxy)-1,2,5-thiadiazole]	13	31	–
CC(C)(CCOc1nsnc1O[C@@H]1CN2CCC[C@H]1C2)c1ccccc1 (relative stereo) [Compound 204, (±)-endo-3-(3-Methyl-3-phenylbutoxy)-4-(1-azabicyclo[3.2.1]octyl-6-oxy)-1,2,5-thiadiazole]	59	153	–
